Source: PubChem BioAssay (NCI)
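Interpolation was linear, between the two tested concentrations surrounding the appropriate level; five concentrations were tested over 48 hours in 96-well plates. At the TGI there is no net growth.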 Where a SMILES comes first, the peptide text is derived from it. [ ]: non-standard residue; d: D form. The star is where a group is joined. NMeV = CN[C@H](C(=O)O)C(C)C; X29 = COc1ccc(CN*)c(OC)c1; Octanoyl = CCCCCCCC(=O)*; dNMeA = CN[C@H](C)C(=O)O

Key:
Experiment in all cases: NCI-60 cell line screen, 48 h
[1] = tested on: NCI-H522 lung
[2] = tested on: U251 CNS
[3] = tested on: OVCAR-4 ovarian
[4] = tested on: ACHN renal
[5] = tested on: SW-620 colon
[6] = tested on: HL-60(TB) leukemia

| Structure (SMILES) | TGI [1] | TGI [2] | TGI [3] | TGI [4] | TGI [5] | TGI [6] |
| --- | --- | --- | --- | --- | --- | --- |
| O=C1CCCN1C(=O)CS(=O)(=O)c1ccccc1 | > 100 µM | > 100 µM | > 100 µM | > 100 µM | > 100 µM | – |
| CCCCCCCC(=O)N[C@H](C(=O)N[C@H](C(=O)N(C)[C@H](C(=O)N1CCC[C@H]1C(=O)N(C)[C@H](C)C(=O)NCc1ccc(OC)cc1OC)C(C)C)C(C)C)C(C)C (Octanoyl-VV[NMeV]P[dNMeA]-X29) | 31.4 µM | > 85.5 µM | > 79.9 µM | 42.4 µM | > 100 µM | 11.3 µM |
| Cc1cc(C)c(-n2[nH]c(=O)n(C)c2=O)c(C)c1 | > 100 µM | > 100 µM | > 100 µM | – | > 100 µM | > 100 µM |
| O=C1OCC2OC(=O)c3cc(O)c(O)c(O)c3-c3c(O)c(O)c(O)c4c3C(=O)OC(C2OC(=O)c2cc(O)c(O)c(O)c2-c2c1cc(O)c(O)c2O)C1OC(=O)c2c-4c(O)c(O)c(O)c2[C@@H]1C(O)C(O)C(O)C(O)CO (stereo partly specified) | 39.7 µM | 48.7 µM | 41 µM | 30.7 µM | 44.5 µM | 50.8 µM |
| COCc1nc(N)nc(N2N=C(C)CC2(C)C)n1 | > 100 µM | > 100 µM | > 100 µM | > 100 µM | > 100 µM | > 100 µM |
| O=c1[nH]cc(-c2c[nH]c3ccccc23)nc1-c1c[nH]c2ccccc12 | 20.3 µM | 70.8 µM | 43.3 µM | 25 µM | 18.1 µM | – |
| CCC(CCCN)Nc1cc(OC)cc2c(C)ccnc12 (stereo unspecified) | – | – | 39 µM | 32.6 µM | 36.9 µM | 27.7 µM |
| CCC(C=O)P1(=O)OC(C)(C)CN1C(C)(C)C (stereo unspecified) | – | > 100 µM | > 100 µM | > 100 µM | > 100 µM | – |
| CC(C)(C)OC(=O)N/N=C(/N)Cc1ccc(Cl)cc1 | > 100 µM | > 100 µM | > 100 µM | > 100 µM | > 100 µM | – |
| COC1/C=C/C(C)C(C(C)C(OC)C(C)CCC(=O)C(C)C(C/C=C/N(C)C=O)OC)OC(=O)C=CC2OC2(C)CC(OC)C(OC)C2=CC(=O)O[C@@H](C(C)C(OC)CC(OC)/C=C/C(C)C(O)C1)[C@H]2O (stereo partly specified) | 0.0296 µM | 0.0416 µM | > 1.24 µM | 0.016 µM | – | 0.0785 µM |
| COc1c(F)c(F)c(/C(O)=C\c2nc3ccccc3[nH]c2=O)c(F)c1F | – | – | 4.94 µM | – | > 10 µM | > 10 µM |
| NC(N)=NCC[C@H](NC(=O)OCCCCCn1ccc(=O)[nH]c1=O)C(=O)O | – | > 100 µM | > 100 µM | > 100 µM | > 100 µM | > 100 µM |
| Cc1n[nH]c(=O)n1N1C(=O)CCCC1=O | > 100 µM | > 100 µM | – | – | – | – |
| COc1cc2c(c(OC)c1)/C(=C/Sc1ccccc1)C(=O)N(C(C)(C)C)C2 | – | 98.6 µM | > 100 µM | > 100 µM | > 100 µM | 59.9 µM |
| Cn1c(=O)c2c(nc3n2CC(=O)N3CCCCl)n(C)c1=O | – | > 100 µM | > 100 µM | > 100 µM | > 100 µM | > 100 µM |
| COc1ccc(C2SCC(=O)N2c2ccc(-c3ccc(-n4c(-c5ccccc5)nc5ccccc5c4=O)cc3)cc2)cc1OC (stereo unspecified) | – | > 100 µM | > 100 µM | – | > 100 µM | > 100 µM |
| Nc1n[n+](CC(=O)c2ccccc2)c2sc(-c3ccccc3)nn12 | > 100 µM | > 100 µM | > 100 µM | > 100 µM | > 100 µM | – |
| CCN1CCC(C)OP1(=O)Cc1ccccc1 (stereo unspecified) | – | > 100 µM | > 100 µM | > 100 µM | > 100 µM | – |
| O=C(O)C12C3CCC(CC3)C1(C(=O)O)C1CCC2C1 (stereo unspecified) | > 100 µM | > 100 µM | – | > 100 µM | > 100 µM | > 100 µM |
| CO/C(=N\N=C\c1ccc(OC)c(OC)c1)c1ccncc1 | – | > 10 µM | > 10 µM | – | > 10 µM | > 10 µM |
| Cc1cc(S(=O)(=O)Nc2nc3ccccc3nc2-c2cccc([N+](=O)[O-])c2)c(S)cc1Cl | 38.9 µM | 38.6 µM | 66.8 µM | 64.3 µM | – | 44.4 µM |
| CC1(/C=C/CCSc2ccccc2)CC(=O)C2CC1C2(C)C (stereo unspecified) | 52.3 µM | > 83.7 µM | > 100 µM | 77.8 µM | > 100 µM | – |
| CC1=NC(=Cc2cccc(Cl)c2)C(=O)N1n1c(-c2ccccc2)nc2ccccc2c1=O | 67.7 µM | – | – | 52.7 µM | > 100 µM | 61.6 µM |
| CC(C)(C)OC(=O)NC(Cc1ccccc1)OCc1ccccc1 (stereo unspecified) | 26.9 µM | > 10 µM | – | 35 µM | 34.2 µM | – |
| CCN1C(=O)c2cc(OC)c(OC)cc2C(=O)C12OC(=O)c1cc3c(cc12)OCO3 (stereo unspecified) | > 100 µM | > 100 µM | > 100 µM | > 100 µM | > 100 µM | – |
| CCOC(=O)C1=NOC2(C=C(Br)C(=O)C(Br)=C2)C1 | 1.34 µM | 26.3 µM | – | 2.25 µM | 2.77 µM | 1.1 µM |
